This note sets out measurements from patent US7786141B2 (Vertex Pharmaceuticals Incorporated, priority 2004, dated 2010).

Test [1] concerns the target T1, M1 muscarinic receptor (Homo sapiens, UniProt P11229).
T1 construct: expressed in transfected cells; host or cells: CHO (M1-CHO)
T1 sequence (P11229 1-460): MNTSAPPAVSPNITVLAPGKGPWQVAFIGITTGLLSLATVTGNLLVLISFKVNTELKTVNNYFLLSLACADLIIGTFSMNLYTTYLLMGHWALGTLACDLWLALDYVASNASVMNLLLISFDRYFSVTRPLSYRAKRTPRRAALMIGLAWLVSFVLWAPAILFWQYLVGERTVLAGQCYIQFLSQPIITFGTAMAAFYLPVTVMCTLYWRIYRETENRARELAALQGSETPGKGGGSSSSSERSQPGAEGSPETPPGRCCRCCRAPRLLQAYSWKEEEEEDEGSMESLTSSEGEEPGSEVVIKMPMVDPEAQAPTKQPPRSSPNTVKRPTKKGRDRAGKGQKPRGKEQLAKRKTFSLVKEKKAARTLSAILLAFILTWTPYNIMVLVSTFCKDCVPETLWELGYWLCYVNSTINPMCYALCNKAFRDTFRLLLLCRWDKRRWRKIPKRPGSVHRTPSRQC
Description: Functional mobilization of intracellular calcium (FLIPR) in M1-CHO cells. Format: cell-based. The note with it: M1 receptor, calcium mobilization; for Emax: read-out: M1 Efficacy. The procedure:
(§1) Functional Mobilization of Intracellular Calcium to Determine Muscarinic Receptor Activity:
(§2) CHO cells expressing muscarinic receptors (M1 to M5) are grown as monolayers in tissue culture flasks at 37° C. in a humidified atmosphere containing 5% CO2 and passaged every 3-5 days. The growth media is Dulbecco's modified eagles medium (DMEM, Gibco Cat# 12430-054), containing 25 mM Hepes and supplemented with Fetal Bovine Serum (Hyclone, cat# SH30071.03), 0.1 mM of MEM non-essential amino acids (GIBCO, Cat# 11140-050), 1 mM MEM Sodium Pyruvate (GIBCO Cat# 11360-070) and 100 units/ml of Penicillin G and 100 μg/ml of Streptomycin (GIBCO Cat# 15140-122). The recombinant muscarinic receptor cell lines are grown under antibiotic pressure with media containing 25 μg/ml zeocin and 500 μg/ml G418 (M1-CHO), 4 μg/ml puromycin, 50 μg/ml zeocin and 2.5 μg/ml blasticidin (M2 and M4-CHO) or 50 μg/ml zeocin and 4 μg/ml puromycin (M3 and M5-CHO).
(§3) Cells are harvested at 80-90% confluence using Versene (GIBCO Cat# 15040-066), collected by centrifugation and seeded 18-24 hrs prior to running the calcium assay at a density of 5,000 cells/well in back-walled, clear-bottomed 384-well plates (BD Biocoat, poly-D-lysine, Cat#356663). The day of the experiment, the cells are washed with a plate washer (Bioteck Instruments, ELX 405) using bath 1 buffer (140-mM NaCl, 4.5-mM KCl, 2-mM CaCl2, 1-mM MgCl2, 10-mM Hepes-Na, 10-mM Glucose, pH 7.4, with NaOH) containing 1 mM Probenecid. Next, the calcium dye Fluo-3 (25 μl/well of Fluo-3 AM at 4 μM, Molecular Probes F-1241, in Bath 1 buffer containing 1 mM Probenecid) is added to the 25 μl of Bath 1 remaining in each well after the plate wash and the dye is loaded at 37° C. in the tissue culture incubator for 60-90 min. The fluorescent dye is removed using the plate washer with Bath 1 containing 1 mM Probenecid, leaving 25 μl/well of this solution after the wash. Alternatively, cells can be loaded with the calcium indicator from Molecular Devices (Calcium 3 Assay Reagents, Cat # R7181) adding 5 μl of a 5× solution dye in Bath 1 containing 1 mM Probenecid (10 ml per dye flask cat# R7182 to generate a solution 20×) to 20 μl of the same buffer. After loading for 60 min, the experiment can be run without having to remove the dye.
(§4) Compounds are prepared at a 2× fold concentration in a 96-well plate (round bottom, Costar Corning cat# 3656), by reconstituting the pre-spotted compounds in bath 1 containing 1 mM probenecid. The final concentration DMSO is 0.5%, and the amount of DMSO is normalized across the assay plate. To determine an agonist action of the compounds on muscarinic receptors, the reconstituted compounds are added (25 μl compound/well) to the cell assay plate (containing 25 μl/well) using the multi-channel robotic system of the FLIPR 3 Instrument (Molecular Devices, Sunnyvale, Calif.). To determine a functional inhibitory action of the compounds on muscarinic receptors, the reconstituted compounds are added (25 μl compound/well) to the assay plate and pre-incubated for 15 min prior to adding 25 μl of Carbachol at 3× the EC80 for each muscarinic subtype. Alternatively, the compounds can be co-applied simultaneously with the agonist. In both assay modes, the fluorescence is recorded for 60 sec (excitation wavelength is […] and emission wavelength 540 nm) using the FLIPR 3 instrument.
(§5) The potency, efficacy and selectivity of the muscarinic compounds were evaluated by screening the compound activity across the whole family (M1 to M5 cells). Compounds were also screened for activity on other proteins such as other GPCRs and ion channels to determine selectivity on M4 receptors.
On the technique in general: Calcium flux is commonly read through the fluorescence of an indicator in the cells.

The target in test [2] is T2, M4 muscarinic receptor (Homo sapiens, UniProt P08173).
T2 construct: expressed in transfected cells; host or cells: CHO (M4-CHO)
T2 sequence (P08173 1-479): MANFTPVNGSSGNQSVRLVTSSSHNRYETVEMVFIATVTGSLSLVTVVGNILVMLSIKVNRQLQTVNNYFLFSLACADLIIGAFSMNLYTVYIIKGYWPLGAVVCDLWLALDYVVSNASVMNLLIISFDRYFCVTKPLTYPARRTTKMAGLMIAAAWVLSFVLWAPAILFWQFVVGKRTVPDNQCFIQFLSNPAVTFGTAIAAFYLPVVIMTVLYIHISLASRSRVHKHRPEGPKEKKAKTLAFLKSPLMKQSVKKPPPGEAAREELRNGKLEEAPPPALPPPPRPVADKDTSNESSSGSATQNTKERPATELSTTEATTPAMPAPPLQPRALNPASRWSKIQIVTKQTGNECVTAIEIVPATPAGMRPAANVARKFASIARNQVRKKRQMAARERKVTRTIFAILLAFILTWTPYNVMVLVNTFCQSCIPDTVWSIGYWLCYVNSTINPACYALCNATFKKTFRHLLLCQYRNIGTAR
Briefly: Functional mobilization of intracellular calcium (FLIPR) in M4-CHO cells. The note with it: M4 receptor, calcium mobilization; for Emax: read-out: M4 Efficacy. Format: cell-based. The procedure: as §1, §2, §3, §4, §5

A value given as a limit tells only on which side of the number the result lay.

For the compound `CC(C)OC(=O)N1CCC(N2CCC3(CC2)CN(C(=O)N(C)C)c2ccc(F)cc23)CC1` [compound 54], in test [1], the “M1 Activity” value is reported as “xxx (activity was measured to be less than 0.1 μM)” and the Emax was more than 85%. For the same compound, in test [2], the “M4 Activity” value is “xx (activity was measured to be between 0.1 μM and 1.0 μM)”; the Emax lay within 65 to 85%.

For the compound `CC(C)C(=O)N[C@H]1CC2(CCN(C[C@H]3C[C@H]4CC[C@H]3C4)CC2)c2ccccc21` [compound 55], in test [1], the “M1 Activity” value was “xxx (activity was measured to be less than 0.1 μM)” and the Emax is more than 85%. Moreover, in test [2], the “M4 Activity” value is reported as “xxx (activity was measured to be less than 0.1 μM)” and the Emax was 65 to 85%.

Regarding `CCOC(=O)N1C2CCC1CC(N1CCC3(CC1)CC(=O)Nc1ccccc13)C2` (stereo not shown) [compound 56], in test [1], the “M1 Activity” value was “xxx (activity was measured to be less than 0.1 μM)” and the Emax was in the range of 65 to 85%. Also, in test [2], the “M4 Activity” value was “xxx (activity was measured to be less than 0.1 μM)” and the Emax was 65 to 85%.

Take `O=C(C1CC1)N1CC2(CCN(C3CC4CCC(C3)N4C(=O)O[C@H]3CCOC3)CC2)c2cc(F)ccc21` (stereo partly shown) [compound 57]: in test [1], the “M1 Activity” value is “xxx (activity was measured to be less than 0.1 μM)” and the Emax is 65 to 85%. In addition, in test [2], the “M4 Activity” value is listed as “xxx (activity was measured to be less than 0.1 μM)” and the Emax was 65 to 85%.

For the compound `CCOC(=O)N1CCC(N2CCC3(CC2)CN(C(C)=O)c2ccc(-c4ccc(C)cc4)cc23)CC1` [compound 58], in test [1], the “M1 Activity” value was “xxx (activity was measured to be less than 0.1 μM)” and the Emax lay in the range of 65 to 85%. Also, in test [2], the “M4 Activity” value was “xx (activity was measured to be between 0.1 μM and 1.0 μM)”; the Emax fell in the range of 65 to 85%.

As to `CCOC(=O)N1C2CCC1CC(N1CCC3(CC1)CN(C(=O)c1snnc1C)c1ccc(F)cc13)C2` (stereo not shown) [compound 59], in test [1], the “M1 Activity” value is listed as “xxx (activity was measured to be less than 0.1 μM)” and the Emax is less than 65%. In test [2], the “M4 Activity” value was “xx (activity was measured to be between 0.1 μM and 1.0 μM)”; the Emax was in the range of 65 to 85%.

Consider `CCOC(=O)N1CCC(CN2CCC3(CC2)CN(C(C)=O)c2ccc(F)cc23)CC1` [compound 60], for which, in test [1], the “M1 Activity” value was “xx (activity was measured to be between 0.1 μM and 1.0 μM)”; the Emax is 65 to 85%. In test [2], the “M4 Activity” value is on record as “x (activity was measured to be greater than 1.0 μM)” and the Emax is 65 to 85%.

On to `CCOC(=O)N1CCC(N2CCC3(CC2)C[C@H](NC(C)=O)c2ccccc23)CC1` [compound 61], for which, in test [1], the “M1 Activity” value is given as “xxx (activity was measured to be less than 0.1 μM)” and the Emax is 65 to 85%. Besides, in test [2], the “M4 Activity” value was “xx (activity was measured to be between 0.1 μM and 1.0 μM)”; the Emax was in the range of 65 to 85%.

For `C#CCCOC(=O)N1CCC(N2CCC3(CC2)CN(C(C)=O)c2ccc(F)cc23)CC1` [compound 62], in test [1], the “M1 Activity” value is listed as “xxx (activity was measured to be less than 0.1 μM)” and the Emax was less than 65%. Further, in test [2], the “M4 Activity” value was “xx (activity was measured to be between 0.1 μM and 1.0 μM)”; the Emax lay within 65 to 85%.

Turning to `CCOC(=O)N1CCC(N2CCC3(CC2)CN(C(=O)OCC(C)(C)C)c2ccc(F)cc23)CC1` [compound 63], in test [1], the “M1 Activity” value is on record as “xxx (activity was measured to be less than 0.1 μM)” and the Emax is less than 65%. In test [2], the “M4 Activity” value is recorded as “x (activity was measured to be greater than 1.0 μM)” and the Emax is less than 65%.

`Clc1ccc2c(c1)C1(CCO2)CCN(C[C@H]2C[C@H]3C=C[C@H]2C3)CC1` [compound 64]: in test [1], the “M1 Activity” value is given as “xxx (activity was measured to be less than 0.1 μM)” and the Emax was less than 65%. Also, in test [2], the “M4 Activity” value is “xx (activity was measured to be between 0.1 μM and 1.0 μM)”; the Emax was less than 65%.

`COCCOC(=O)N1CCCC(N2CCC3(CC2)CN(C(C)=O)c2ccc(F)cc23)CC1` (stereo not shown) [compound 65]: in test [1], the “M1 Activity” value was “xx (activity was measured to be between 0.1 μM and 1.0 μM)”; the Emax was in the range of 65 to 85%. In test [2], the “M4 Activity” value is “x (activity was measured to be greater than 1.0 μM)” and the Emax was less than 65%.

Consider `CCOC(=O)N1CCC(N2CCC3(CC2)CN(C(=O)c2ccc(OC(F)(F)F)cc2)c2ccc(F)cc23)CC1` [compound 66], for which, in test [1], the “M1 Activity” value is listed as “xxx (activity was measured to be less than 0.1 μM)” and the Emax is more than 85%. Further, in test [2], the “M4 Activity” value is recorded as “xxx (activity was measured to be less than 0.1 μM)” and the Emax was more than 85%.

On to `CC(=O)N1CC2(CCN(C3CC4CCC(C3)N4C(=O)O[C@@H]3CCOC3)CC2)c2cc(F)ccc21` (stereo partly shown) [compound 67], for which, in test [1], the “M1 Activity” value is reported as “xxx (activity was measured to be less than 0.1 μM)” and the Emax was less than 65%. For the same compound, in test [2], the “M4 Activity” value was “xx (activity was measured to be between 0.1 μM and 1.0 μM)”; the Emax is less than 65%.

With `O=C(OC1CCC1)N1C2CCC1CC(N1CCC3(CCc4ccccc43)CC1)C2` (stereo not shown) [compound 68], in test [1], the “M1 Activity” value was “xx (activity was measured to be between 0.1 μM and 1.0 μM)”; the Emax was less than 65%. In test [2], the “M4 Activity” value is listed as “x (activity was measured to be greater than 1.0 μM)” and the Emax is less than 65%.

`O=C(C1CCC1)N1CC2(CCN(C3CC4CCC(C3)N4C(=O)O[C@@H]3CCOC3)CC2)c2cc(F)ccc21` (stereo partly shown) [compound 69]: in test [1], the “M1 Activity” value is “xx (activity was measured to be between 0.1 μM and 1.0 μM)”; the Emax was less than 65%. Besides, in test [2], the “M4 Activity” value was “xx (activity was measured to be between 0.1 μM and 1.0 μM)”; the Emax was less than 65%.
